Drawing on ChEMBL document CHEMBL3132755, “Phage display libraries of differently sized bicyclic peptides” (Medchemcomm, 2013), this text covers Ki for 9 compounds.

The target of this assay is Urokinase-type plasminogen activator (Homo sapiens, UniProt P00749). Put plainly: Inhibition of human uPA using Z-Gly-Gly-Arg-AMC as substrate after 30 mins by fluorescence assay.
One may read the Ki as the equilibrium dissociation constant of an inhibitor or competing ligand from its target. Read a low Ki as a stronger hold on the target. `CC[C@H](C)[C@@H]1NC(=O)[C@H](CO)NC(=O)[C@H](CO)NC(=O)[C@H](CCCNC(=N)N)NC(=O)CNC(=O)[C@H](CCCNC(=N)N)NC(=O)[C@@H]2CSCc3cc(cc(c3)CSC[C@@H](C(=O)NCC(=O)O)NC1=O)CSC[C@H](NC(=O)[C@H](C)N)C(=O)N[C@@H]([C@@H](C)O)C(=O)N[C@@H](CCC(=O)O)C(=O)N[C@@H](Cc1ccccc1)C(=O)N[C@@H](CCC(N)=O)C(=O)N[C@@H]([C@@H](C)O)C(=O)N[C@@H](CC(=O)O)C(=O)N2` came in with an inhibition constant Ki of 0.9 µM. The result for `C[C@H](N)C(=O)N[C@H]1CSCc2cc3cc(c2)CSC[C@@H](C(=O)NCC(=O)O)NC(=O)[C@@H]2CCCN2C(=O)CNC(=O)CNC(=O)[C@H](CCCNC(=N)N)NC(=O)CNC(=O)[C@H](CCCNC(=N)N)NC(=O)[C@H](CSC3)NC(=O)[C@H](CC(=O)O)NC(=O)[C@H]([C@@H](C)O)NC(=O)[C@H](C)NC(=O)[C@H](C)NC(=O)[C@H](Cc2cnc[nH]2)NC(=O)[C@H](CC(N)=O)NC1=O` reads 0.71 µM; that for `CC(C)C[C@@H]1NC(=O)[C@H]([C@@H](C)O)NC(=O)[C@H](CCCNC(=N)N)NC(=O)[C@H](C)NC(=O)[C@H]([C@@H](C)O)NC(=O)[C@@H]2CSCc3cc(cc(c3)CSC[C@@H](C(=O)NCC(=O)O)NC1=O)CSC[C@H](NC(=O)[C@H](C)N)C(=O)N[C@@H](CCCCN)C(=O)N[C@@H](CCC(N)=O)C(=O)N[C@@H](CO)C(=O)N[C@@H](C(C)C)C(=O)N2`, 8.67 µM.

For `C[C@H](N)C(=O)N[C@H]1CSCc2cc3cc(c2)CSC[C@@H](C(=O)NCC(=O)O)NC(=O)[C@@H]2CCCN2C(=O)[C@H](Cc2ccccc2)NC(=O)[C@H](CCCNC(=N)N)NC(=O)[C@H](C)NC(=O)[C@H]([C@@H](C)O)NC(=O)[C@H](CSC3)NC(=O)[C@H](CC(=O)O)NC(=O)[C@H](CO)NC(=O)[C@H](Cc2cnc[nH]2)NC(=O)[C@H](CCCCN)NC1=O`, the affinity, expressed as Ki, was 26.8 µM. Under `CSCC[C@@H]1NC(=O)[C@H]([C@@H](C)O)NC(=O)[C@H](Cc2ccccc2)NC(=O)[C@H](CCCCN)NC(=O)[C@@H]2CSCc3cc(cc(c3)CSC[C@@H](C(=O)NCC(=O)O)NC1=O)CSC[C@H](NC(=O)[C@H](C)N)C(=O)N[C@@H](CCCNC(=N)N)C(=O)NCC(=O)NCC(=O)N2` stands 23.5 µM; under `CC(C)C[C@@H]1NC(=O)[C@@H](NC(=O)[C@H](C)N)CSCc2cc3cc(c2)CSC[C@@H](C(=O)NCC(=O)O)NC(=O)[C@H](CO)NC(=O)[C@@H]2CCCN2C(=O)[C@H](CCCNC(=N)N)NC(=O)[C@H](CCCNC(=N)N)NC(=O)[C@H](CC(N)=O)NC(=O)[C@H](CCC(=O)O)NC(=O)[C@H](CSC3)NC(=O)CNC(=O)[C@H](CCCNC(=N)N)NC(=O)[C@H](CCC(=O)O)NC(=O)CNC(=O)[C@H](CCC(N)=O)NC1=O`, 4.77 µM; under `CC(C)C[C@@H]1NC(=O)[C@H](C(C)C)NC(=O)[C@H](CCC(N)=O)NC(=O)[C@H]([C@@H](C)O)NC(=O)[C@H](C)NC(=O)[C@@H]2CCCN2C(=O)[C@@H]2CSCc3cc(cc(c3)CSC[C@@H](C(=O)NCC(=O)O)NC1=O)CSC[C@H](NC(=O)[C@H](C)N)C(=O)N[C@@H]([C@@H](C)O)C(=O)N[C@@H](C)C(=O)N[C@@H](CCCNC(=N)N)C(=O)N[C@@H]([C@@H](C)O)C(=O)N2`, 48.7 µM. The result for `CC(C)C[C@@H]1NC(=O)[C@H](CO)NC(=O)[C@H](Cc2ccccc2)NC(=O)[C@H](CCCCN)NC(=O)[C@H](Cc2c[nH]c3ccccc23)NC(=O)[C@H](CC(N)=O)NC(=O)[C@@H](NC(=O)[C@H](C)N)CSCc2cc3cc(c2)CSC[C@H](NC1=O)C(=O)N[C@@H](CCC(=O)O)C(=O)N[C@@H]([C@@H](C)O)C(=O)N[C@@H](CCC(N)=O)C(=O)N[C@@H](CCCNC(=N)N)C(=O)N[C@@H](CC(N)=O)C(=O)N[C@@H](CCC(N)=O)C(=O)N[C@H](C(=O)NCC(=O)O)CSC3` reads 1.48 µM. In the case of `CSCC[C@@H]1NC(=O)[C@H](CCC(N)=O)NC(=O)[C@H](CO)NC(=O)[C@H](CO)NC(=O)[C@@H]2CCCN2C(=O)[C@H](CO)NC(=O)[C@@H]2CSCc3cc(cc(c3)CSC[C@@H](C(=O)NCC(=O)O)NC1=O)CSC[C@H](NC(=O)[C@H](C)N)C(=O)N[C@@H](CC(N)=O)C(=O)N[C@@H](CO)C(=O)N[C@@H](CCCNC(=N)N)C(=O)N[C@@H](Cc1ccccc1)C(=O)N[C@@H](C)C(=O)N[C@@H](CC(C)C)C(=O)N2`, the inhibition constant (Ki) is 14.8 µM.
